# Test results reported in patent publication US10780074B2, “Compounds and uses thereof” (Sunovion Pharmaceuticals Inc., priority 2017, dated 2020).
# Structures can show the parent of a compound that is named as a salt.
# Tested on: behaviors of compound-treated mice
# Test: Neuropharmacological Assay (SmartCube)
# Assay type: in vivo
# Conditions: Mus musculus, ip, 0.25 h, dose having 50% or more total activity in SmartCube, i.p., read-out: MED (minimal effective dose)
# From the text: Neuropharmacological Assay (SmartCube™)
# Neurosci. 2011 Sep. 9; 5:103 (doi: 10.3389/fnins.2011.00103) (“Roberds”). As reported in Roberds, because psychiatric diseases generally result from disorders of cell-cell communication or circuitry, intact systems are useful in detecting improvement in disease-relevant endpoints. These endpoints are typically behavioral in nature, often requiring human observation and interpretation. To facilitate testing of multiple compounds for behavioral effects relevant to psychiatric disease, PsychoGenics, Inc. (Tarrytown, N.Y., “PGI”) developed SmartCube™, an automated system in which behaviors of compound-treated mice are captured by digital video and analyzed with computer algorithms. (D. Brunner et al., Drug Discov. Today 2002, 7:S107-S112). PGI Analytical Systems uses data from SmartCube™ to compare the behavioral signature of a test compound to a database of behavioral signatures obtained using a large set of diverse reference compounds. (The composition of the database as well as validation of the method is further described in Roberds). In this way, the neuropharmacological effects of a test compound can be predicted by similarity to major classes of compounds, such as antipsychotics, anxiolytics and antidepressants.
# The SmartCube™ system produces an activity signature indicating the probability that the activity of the test compound at the administered dose matches a given class of neuropharmacological agents. (See, e.g., Roberds, FIGS. 2 and 3). The test compound is simultaneously compared against multiple classes of agents; thus, a separate probability is generated for each behavioral effect measured (e.g., anxiolytic activity, analgesic activity, etc.). In the table below, these probabilities are reported for each behavioral effect measured as follows:
# Provided compounds were dissolved in a mixture of Pharmasolve™ (N-methyl-2-pyrrolidone), polyethylene glycol and propylene glycol, and were injected i.p. 15 min. before the behavioral test. For each compound, injections were administered at 3 different doses. For each behavioral effect measured, results for the most efficacious dose(s) are presented. In the table below, DP: anti-depressant; AX: anxiolytic; SD: sedative hypnotic; PS: anti-psychotic; MS: mood stabilizer; AD: ADHD; CE: cognitive enhancer; AG: analgesic; UN: uncharacterized CNS activity.
# The potency of many of the compounds in the table was also determined in the SmartCube™ system. Test compounds were routinely examined at dose levels of 0.3, 1, 3 10 and 30 mg per kg (mpk), although the dose range was increased or decreased if necessary to obtain a full dose response curve. A compound's minimal effective dose (MED) is a measure of the compounds potency. The MED was defined as the dose (in mpk) having 50% or more total activity in SmartCube.
row,Compound,minimal effective dose
1,"NC[C@@H]1OCc2c(-c3ccncc3)cccc21 (single isomer, unassigned) [Compound 37, hydrochloride salt]",10 to 30 mg/kg
2,"NC[C@H]1OCc2c(-c3ccncc3)cccc21 (single isomer, unassigned) [Compound 38, hydrochloride salt]",≤ 3 mg/kg
3,"CNC[C@@H]1OCc2c(-c3ccncc3)cccc21 (single isomer, unassigned) [Compound 39, hydrochloride salt]",≤ 3 mg/kg
4,"NC[C@@H]1OCc2c(-c3ccccn3)cccc21 (single isomer, unassigned) [Compound 41]",10 to 30 mg/kg
5,"NC[C@H]1OCc2c(-c3ccccn3)cccc21 (single isomer, unassigned) [Compound 42]",10 to 30 mg/kg

# Same assay, conditions: i.p. 15 min before behavioral test, most efficacious dose(s) of 3 doses
Compound,AD: ADHD (probability that activity matches class),AG: analgesic (probability that activity matches class),AX: anxiolytic (probability that activity matches class),CE: cognitive enhancer (probability that activity matches class),DP: anti-depressant (probability that activity matches class),MS: mood stabilizer (probability that activity matches class),PS: anti-psychotic (probability that activity matches class),SD: sedative hypnotic (probability that activity matches class),UN: uncharacterized CNS activity (probability that activity matches class)
"NC[C@@H]1OCc2c(-c3ccncc3)cccc21 (single isomer, unassigned) [Compound 37, hydrochloride salt]",++ (5% ≤ ++ <25%),++ (5% ≤ ++ <25%),++ (5% ≤ ++ <25%),+ (LOQ ≤ + <5%),+++ (25% ≤ +++ <50%),+ (LOQ ≤ + <5%),+ (LOQ ≤ + <5%),+ (LOQ ≤ + <5%),+ (LOQ ≤ + <5%)
"NC[C@H]1OCc2c(-c3ccncc3)cccc21 (single isomer, unassigned) [Compound 38, hydrochloride salt]",++ (5% ≤ ++ <25%),++ (5% ≤ ++ <25%),+++ (25% ≤ +++ <50%),+ (LOQ ≤ + <5%),++++ (50% ≤ ++++),+ (LOQ ≤ + <5%),+ (LOQ ≤ + <5%),++ (5% ≤ ++ <25%),++ (5% ≤ ++ <25%)
"CNC[C@@H]1OCc2c(-c3ccncc3)cccc21 (single isomer, unassigned) [Compound 39, hydrochloride salt]",++ (5% ≤ ++ <25%),+ (LOQ ≤ + <5%),++ (5% ≤ ++ <25%),+ (LOQ ≤ + <5%),++++ (50% ≤ ++++),+ (LOQ ≤ + <5%),+ (LOQ ≤ + <5%),++ (5% ≤ ++ <25%),+ (LOQ ≤ + <5%)
"NC[C@@H]1OCc2c(-c3ccccn3)cccc21 (single isomer, unassigned) [Compound 41]",+ (LOQ ≤ + <5%),+ (LOQ ≤ + <5%),++ (5% ≤ ++ <25%),++ (5% ≤ ++ <25%),++ (5% ≤ ++ <25%),+ (LOQ ≤ + <5%),+ (LOQ ≤ + <5%),++ (5% ≤ ++ <25%),++++ (50% ≤ ++++)
"NC[C@H]1OCc2c(-c3ccccn3)cccc21 (single isomer, unassigned) [Compound 42]",+ (LOQ ≤ + <5%),+++ (25% ≤ +++ <50%),++ (5% ≤ ++ <25%),++ (5% ≤ ++ <25%),++ (5% ≤ ++ <25%),+ (LOQ ≤ + <5%),+ (LOQ ≤ + <5%),+ (LOQ ≤ + <5%),++ (5% ≤ ++ <25%)
